Data from the NIST ThermoML archive (doi:10.1007/s10765-009-0602-6).

Assay: molar heat capacity at constant volume; xn = mol fraction of the nth substance listed
Conditions: Fluid (supercritical or subcritical phases), isochoric heat capacity, x1 = 0.2607

N [ammonia] + O
Conditions	molar heat capacity at constant volume [J/K/mol]
605.3 K, Mass density=329 kg/m3	82.4
605.39 K, Mass density=147.43 kg/m3	55.23
605.39 K, Mass density=329 kg/m3	83.73
605.47 K, Mass density=147.43 kg/m3	52.57
605.56 K, Mass density=329 kg/m3	84.16
605.64 K, Mass density=147.43 kg/m3	54.75
605.73 K, Mass density=147.43 kg/m3	55.07
605.82 K, Mass density=147.43 kg/m3	55.82
605.9 K, Mass density=147.43 kg/m3	54.48
606.33 K, Mass density=195.99 kg/m3	62.19
606.41 K, Mass density=195.99 kg/m3	62.19
606.41 K, Mass density=376.89 kg/m3	80.52
606.5 K, Mass density=195.99 kg/m3	62.44
606.58 K, Mass density=376.89 kg/m3	81.48
606.66 K, Mass density=195.99 kg/m3	62.01
606.67 K, Mass density=376.89 kg/m3	83.04
606.75 K, Mass density=195.99 kg/m3	62.31
606.76 K, Mass density=376.89 kg/m3	82.08
606.84 K, Mass density=195.99 kg/m3	62.12
606.84 K, Mass density=376.89 kg/m3	79.68
607.69 K, Mass density=342.18 kg/m3	76.36
607.78 K, Mass density=309.95 kg/m3	83.5
607.78 K, Mass density=342.18 kg/m3	81.1
607.86 K, Mass density=342.18 kg/m3	78.56
607.86 K, Mass density=376.89 kg/m3	79.35
607.87 K, Mass density=309.95 kg/m3	80.85
607.95 K, Mass density=309.95 kg/m3	86.43
607.95 K, Mass density=342.18 kg/m3	76.04
607.95 K, Mass density=376.89 kg/m3	80.25
608.04 K, Mass density=309.95 kg/m3	82.99
608.04 K, Mass density=376.89 kg/m3	78.87
608.12 K, Mass density=376.89 kg/m3	77.04
608.19 K, Mass density=160.07 kg/m3	52.92
608.21 K, Mass density=309.95 kg/m3	84.23
608.21 K, Mass density=376.89 kg/m3	75.92
608.29 K, Mass density=376.89 kg/m3	79.42
608.38 K, Mass density=376.89 kg/m3	76.18
608.4 K, Mass density=160.07 kg/m3	53.56
608.54 K, Mass density=160.07 kg/m3	51.75
608.63 K, Mass density=160.07 kg/m3	53.4
608.72 K, Mass density=160.07 kg/m3	52.1
608.81 K, Mass density=160.07 kg/m3	52.48
608.9 K, Mass density=160.07 kg/m3	52.35
609.06 K, Mass density=195.99 kg/m3	62.14
609.14 K, Mass density=195.99 kg/m3	62.71
609.23 K, Mass density=195.99 kg/m3	62.28
609.3 K, Mass density=195.99 kg/m3	63.31
609.4 K, Mass density=195.99 kg/m3	62.65
609.4 K, Mass density=320.33 kg/m3	87.43
609.48 K, Mass density=195.99 kg/m3	63.19
609.48 K, Mass density=294.44 kg/m3	91.17
609.48 K, Mass density=320.33 kg/m3	84.26
609.57 K, Mass density=294.44 kg/m3	89.27
609.57 K, Mass density=320.33 kg/m3	85.97
609.65 K, Mass density=294.44 kg/m3	87.71
609.65 K, Mass density=308.35 kg/m3	76.86
609.65 K, Mass density=320.33 kg/m3	80.69
609.74 K, Mass density=195.99 kg/m3	62.31
609.74 K, Mass density=294.44 kg/m3	89.93
609.74 K, Mass density=320.33 kg/m3	83.43
609.82 K, Mass density=294.44 kg/m3	89.02
609.82 K, Mass density=308.35 kg/m3	74.71
609.91 K, Mass density=308.35 kg/m3	78.67
609.99 K, Mass density=308.35 kg/m3	77.82
610.08 K, Mass density=308.35 kg/m3	76.77
610.17 K, Mass density=312.91 kg/m3	84.03
610.25 K, Mass density=312.91 kg/m3	83.02
610.33 K, Mass density=312.91 kg/m3	81.99
610.42 K, Mass density=311.19 kg/m3	84.41
610.42 K, Mass density=312.91 kg/m3	81.69
610.51 K, Mass density=311.19 kg/m3	81.05
610.51 K, Mass density=312.91 kg/m3	81.85
610.53 K, Mass density=311.19 kg/m3	82.17
610.59 K, Mass density=307.35 kg/m3	83.84
610.59 K, Mass density=312.91 kg/m3	80.77
610.68 K, Mass density=307.35 kg/m3	83.61
610.76 K, Mass density=307.35 kg/m3	85.1
610.77 K, Mass density=311.19 kg/m3	80
610.84 K, Mass density=311.19 kg/m3	82.42
610.85 K, Mass density=307.35 kg/m3	81.92
610.93 K, Mass density=307.35 kg/m3	80.84
611.02 K, Mass density=301.94 kg/m3	85.7
611.02 K, Mass density=307.35 kg/m3	83.41
611.1 K, Mass density=301.94 kg/m3	86.38
611.1 K, Mass density=307.35 kg/m3	81.26
611.19 K, Mass density=299.79 kg/m3	81.78
611.23 K, Mass density=301.94 kg/m3	84.69
611.27 K, Mass density=299.79 kg/m3	82.1
611.35 K, Mass density=230.31 kg/m3	80.27
611.35 K, Mass density=301.94 kg/m3	83.16
611.36 K, Mass density=299.79 kg/m3	80.3
611.44 K, Mass density=230.31 kg/m3	81.01
611.44 K, Mass density=299.79 kg/m3	81.57
611.44 K, Mass density=301.94 kg/m3	83.38
611.52 K, Mass density=230.31 kg/m3	77.59
611.53 K, Mass density=299.79 kg/m3	80.94
611.57 K, Mass density=230.31 kg/m3	78.33
611.61 K, Mass density=299.79 kg/m3	79.86
611.61 K, Mass density=301.94 kg/m3	85.13
611.8 K, Mass density=230.31 kg/m3	77.07
612.29 K, Mass density=342.18 kg/m3	78.23
612.46 K, Mass density=376.89 kg/m3	76.4
612.55 K, Mass density=342.18 kg/m3	77.21
612.55 K, Mass density=376.89 kg/m3	78.49
612.63 K, Mass density=342.18 kg/m3	78.71
612.63 K, Mass density=376.89 kg/m3	74.83
612.8 K, Mass density=342.18 kg/m3	78.26
612.8 K, Mass density=376.89 kg/m3	75.58
612.89 K, Mass density=376.89 kg/m3	77.5
615.18 K, Mass density=160.07 kg/m3	57.18
615.27 K, Mass density=160.07 kg/m3	57.36
615.35 K, Mass density=160.07 kg/m3	59.17
615.52 K, Mass density=160.07 kg/m3	57.77
615.61 K, Mass density=160.07 kg/m3	57.15
615.69 K, Mass density=160.07 kg/m3	58.32
615.78 K, Mass density=160.07 kg/m3	59.81
615.86 K, Mass density=311.19 kg/m3	80.59
615.94 K, Mass density=311.19 kg/m3	82.26
615.94 K, Mass density=312.91 kg/m3	84.14
616.03 K, Mass density=311.19 kg/m3	78.26
616.03 K, Mass density=312.91 kg/m3	81.62
616.2 K, Mass density=309.95 kg/m3	81.9
616.2 K, Mass density=311.19 kg/m3	79.08
616.2 K, Mass density=312.91 kg/m3	78.12
616.24 K, Mass density=329 kg/m3	79.1
616.28 K, Mass density=309.95 kg/m3	81.26
616.29 K, Mass density=312.91 kg/m3	77.14
616.37 K, Mass density=309.95 kg/m3	80.5
616.37 K, Mass density=311.19 kg/m3	78.05
616.37 K, Mass density=312.91 kg/m3	80.69
616.45 K, Mass density=309.95 kg/m3	78.62
616.45 K, Mass density=329 kg/m3	75.46
616.54 K, Mass density=329 kg/m3	77.16
616.55 K, Mass density=309.95 kg/m3	82.93
616.62 K, Mass density=329 kg/m3	76.27
616.69 K, Mass density=299.79 kg/m3	82.29
616.71 K, Mass density=329 kg/m3	76.77
616.84 K, Mass density=299.79 kg/m3	80.34
616.95 K, Mass density=299.79 kg/m3	81.41
617.05 K, Mass density=299.79 kg/m3	82.13
617.13 K, Mass density=299.79 kg/m3	79.98
617.31 K, Mass density=299.79 kg/m3	80.5
617.46 K, Mass density=299.79 kg/m3	80.93
618.23 K, Mass density=342.18 kg/m3	78.08
618.32 K, Mass density=342.18 kg/m3	77.48
618.5 K, Mass density=342.18 kg/m3	78.3
618.57 K, Mass density=342.18 kg/m3	78.49
618.66 K, Mass density=342.18 kg/m3	76.77
619.76 K, Mass density=297.6 kg/m3	76.26
619.93 K, Mass density=297.6 kg/m3	75.1
620.01 K, Mass density=297.6 kg/m3	77.64
620.1 K, Mass density=297.6 kg/m3	76.82
624.74 K, Mass density=160.07 kg/m3	61.66
624.83 K, Mass density=160.07 kg/m3	63.49
624.99 K, Mass density=160.07 kg/m3	62.99
625.08 K, Mass density=160.07 kg/m3	60.95
625.16 K, Mass density=160.07 kg/m3	64.25
633.07 K, Mass density=160.07 kg/m3	67.64
633.16 K, Mass density=160.07 kg/m3	68.71
633.33 K, Mass density=160.07 kg/m3	67.18
633.49 K, Mass density=160.07 kg/m3	68.49
633.58 K, Mass density=160.07 kg/m3	67.41
633.66 K, Mass density=160.07 kg/m3	67.98
